Laboratory results reported in patent US20080176810A1, “Use of 3, 4', 5-Trihydroxy-Stilbene-3-Beta-D-glucoside in Prepartion of Medicines For Treating and/or Preventing Ischemic Heart Disease” (SHENZHEN NEPTUNUS PHARMACEUTICAL CO., LTD., priority 2004, published 2008).

Key:
[1] = test system: chronic myocardial ischemia; assay: Chronic myocardial ischemia in rats, intragastric administration; assay type: in vivo, SD rats; details: TSG 20 mg/kg intragastric, 6 weeks
Procedure: (1) Operation and Coronary artery ligation of Animal: 60 male SD rats, divided into two groups: 15 in sham operation group and 45 in operation group, were immobilized on their backs by anesthesia of urethane ip at the dose of 100 mg/kg. Electrocardiograph (ECG-6851C, made by Shanghai Photoelectrical & Electronic Medical Apparatus Co., Ltd.) was used to record II lead electrocardiogram. Tracheal intubation was performed and connected into an artificial respirator and thoracotomy was performed at the fourth intercostal space of left sternal border after the skin sterilization. With exposure of the heart, the ligation was conducted at 3-4 mm of the root of left anterior descending coronary artery. ECG was monitored during the whole process and the graph showing significant elevation and depression of ST segment as well as the elevated T-wave amplitude was viewed as the indexes for the success of coronary artery ligation. After the ligation, thorax was closed and the air was drawn out. Regular feeding was continued after the operation, and the intramuscular injection of Penicillin was performed to prevent infection in 1 week after the operation. Thoracotomy was performed in sham operation group without coronary artery ligation.
(2) Groups and administration: 5 weeks later, there were 11 rats survived in sham operation group, and 24 rats in operation group. […] Starting from the sixth week, drugs were administered 6 days per week, and continued for 6 weeks, but withdrawn on Sundays. The volume of the drug administered was 5 ml/kg.
(1) Evaluation of therapeutic effect: Therapeutic effect was evaluated at the 12th week after the operation. 30 min after the final administration, rats were immobilized on their backs and tracheal intubation was performed. Arteria Femoralis was separated or insertion of a catheter to record artery blood pressure. A cardiac catheter was inversely guided into left ventricular from right common carotid artery. Both catheters were connected with pressure sensor, and then the pressure signals were input into an electrophysiolograph Powerlab system 8s (ML785/8S, AD Instruments, made in Australia) after being amplified with carriers. Needle electrodes were subcutaneously inserted into four limbs to monitor the standard two lead ECG. A computer (chart4.12 software, ML785/8S, AD Instruments, made in Australia) was used to monitor and store data. Thirty min after the operation, heart rate (HR), blood pressure (BPm), left ventricular systolic pressure (LVSP), left ventricular diastolic pressure (LVDP), the maximal rate of left intraventricular pressure changes (+dp/dtmax), left ventricular end-diastolic pressure (LVEDP), ECG were observed. One hour later, animals were executed, and their left ventriculars were taken out. The left hearts were cut into slices of 5 mm in thickness, which were cleaned with normal saline and put into 0.025% nitroblue tetrazolium (N-BT, made by Swiss Fluka Chemistry Company) at 37° C. for staining. Normal myocardium was dyed into dark blue, and the myocardium in infarction area was not dyed, remaining still light-yellow. The infarction area was isolated from normal myocardium under an anatomic microscopy and the both weighed, separatively. The percentage (%) of the weight of infarct area to the weight of the whole was regarded as the index for measurement of the area of myocardial infarction.
Test results was expressed in x±s. […]

platelet aggregation = details: 6~100 μmol/L TSG; cited from earlier work
Kunming mice = assay: Acute toxicity test of mice, intravenous injection; details: single dose tail intravenous injection
Procedure: Drugs were medicated via intravenous injection at different concentration in same volume, which was 20 ml/kg.
40 healthy Kunming mice were selected and randomly divided into 4 groups. Drugs were injected via tail vein at one time and the doses were 300 mg/kg, 425 mg/kg, 600 mg/kg and 850 mg/kg, respectively. Mice were constantly observed for 4 hours after the injection. After that, observations were carried out once in the morning and once in the afternoon for 7 days continuously. Signs of intoxation and time of death were recorded.

[2] = test system: ischemic reperfusion injury of myocardium; assay: Ischemic reperfusion injury of myocardium in rats, iv; assay type: in vivo, SD rats; details: for CK / LDH: serum
Procedure: Administration was performed by femoral intravenous injection.
(1) Method of operation and ligation of coronary artery: Male SD rats were anesthetized with pentobarbital sodium (45 mg/kg) and immobilized on their backs for records of II lead ECG with an electrocardiograph (ECG-6851C, manufactured by Shanghai Photoelectrical Medical Electronic Apparatus Co., Ltd.). Tracheas were intubated and connected to a breathing apparatus. Thoracotomy was performed at intercostal space on left chest for cutting down fourth/fifth rib and opening cardiac pericardium to expose the heart. A 0/3 suture line was passed underneath the left branch of anterior descending coronary artery. After 10 minutes of stabilization (those with abnormal ECG after stabilization were abandoned). With two thrums passing through a small piece of fine silicone tube, a ligature was made on another small piece of fine silicone tube for ischemic ligation (those with no changes in ST segment and T-wave were excluded). After 10 minutes of ligation, drugs were injected slowly through femoral veins. 40 minutes later, the lines for ligation were cut off to reperfuse the anterior descending branch for 30 minutes.
(2) Detection of lactate dehydrogenase (LDH) and creatine kinase (CK): After completion of reperfusion, blood was sampled from abdominal aorta to determine serum activity of LDH and CK with ultraviolet spectrometry.
(3) Measurement of the area of myocardial infarction: With same thickness, 5 slices of ventricular myocardium were cut off from the part under the line of coronary ligation and in parallel to atrioventricular furrow and put into staining solution of nitroblue tetrazolium (N-BT) for 15 min of shaking dyeing. Normal myocardium would be dyed to lasureous color, while the infarct part of myocardium would not be dyed and remain pale-yellow. Under a microscopy, the infarct part was separated and weighed, and the percentage (%) of the weight of infarct part to the weight of total myocardium was adopted as the index for area of myocardial infarction.
(4) Data and statistic treatment: Data in all groups were presented with x±s and analysis of variance was adopted to check their significance.

Substance: 3,4′,5-trihydroxy-stilbene-3-β-D-glucoside [TSG]
- +dp/dt max [1]: 1389 ± 142^Δ Kpa/s
- BP [1]: 19.2 ± 1.8^Δ KPa
- HR [1]: 354 ± 45^Δ p/min
- LVEDP [1]: 0.82 ± 0.19^Δ KPa
- LVSP [1]: 19.8 ± 2.1^Δ KPa
- platelet aggregation and production of thromboxane B2 induced by arachidonic acid, adenosine diphosphate and adrenalin (platelet aggregation): inhibited
- signs of intoxication (Kunming mice): body shaking, occasionally restlessness, twitch and other responses appeared
- time of death after the drug injection (Kunming mice): 5 to 1440 min
- Infarct area percentage ([2]; high dose 30.0 mg/kg iv): 23.71 ± 3.66 %
- CK ([2]; high dose 30.0 mg/kg iv): 559.4 ± 72.9 IU/L
- LDH ([2]; high dose 30.0 mg/kg iv): 744.0 ± 149.2 IU/L
- Infarct area percentage ([2]; low dose 7.5 mg/kg iv): 27.57 ± 5.33 %
- CK ([2]; low dose 7.5 mg/kg iv): 710.7 ± 106.8 IU/L
- LDH ([2]; low dose 7.5 mg/kg iv): 857.7 ± 124.0 IU/L
- Infarct area percentage ([2]; middle dose 15.0 mg/kg iv): 24.80 ± 3.32 %
- CK ([2]; middle dose 15.0 mg/kg iv): 630.6 ± 108.6 IU/L
- LDH ([2]; middle dose 15.0 mg/kg iv): 809.4 ± 128.4 IU/L
